The values that follow come from patent US12024504B2, “1-methyl-1H-pyrazol-3-yl derivatives for use in the treatment of neovascular diseases” (EXONATE LIMITED, priority 2021, dated 2024).

A word on the melting point: it is the temperature, or range, at which the solid turns liquid. By IC50 is commonly meant the midpoint of a concentration-inhibition curve. Usually half-life stands for the time in which the quantity being followed falls by half. Low values mean fast loss, high ones slow loss.

In series [1] the test system is VEGF-A165a isoform. The series is described as follows: VEGF isoform specific ELISA in retinal pigmented epithelial cells. Format: cell-based, human. The conditions noted are these: FIG. 5. Here is the method:
96-well clear microplate (high sensitivity thermo immulon or costar 9018) were coated with 100 μL of 10 μg/mL VEGFxxxb or 0.25 μg/mL anti-hVEGF165a per well. The plate was sealed with parafilm and incubated overnight on the shaker at room temp. Each well was aspirated and washed with Wash Buffer (200 μL PBS-Tween 0.05%), […] for a total of three washes. After the last wash, remaining Wash Buffer was removed by inverting the plate and blotting it against clean paper towels. Plates were blocked by adding 100 μL of Reagent Diluent (1% BSA/PBS) to each well and incubated at room temp on a shaker for 2 hours. The aspiration/wash step was repeated. 100 μL of standards or samples in 1% BSA/PBS were added to each well, covered with parafilm and incubated 2 hours at room temperature. The aspiration/wash was repeated and 100 μL of 100 ng/mL of Detection Antibody (BAF293), diluted in Reagent Diluent, was added to each well which were covered with parafilm and incubated 2 hours at room temperature. The aspiration/wash was repeated and 100 μL of the working dilution of Streptavidin-HRP (1:200 dilution) was added to each well. […] The optical density of each well was measured immediately, using a microplate reader set to 450 nm.
To determine whether compound 1 could switch splicing of VEGF isoforms, VEGF was measured in retinal pigmented epithelial cells by isoform specific ELISA.
Background: ELISA stands for enzyme-linked immunosorbent assay.

A short description of series [2]: Rabbit pharmacokinetic study (eye drop). Format: in vivo. The conditions noted are these: single 50 μL eye drop, 500 μg/mL, 1, 4, 12 or 24 hours. Here is the method: Rabbits were treated with a single 50 μL eye drop of pazopanib at 80 μg/ml (maximum limit of solubility) and compound R at 500 μg/mL in the initial eye drop formulation containing 1% hydroxypropyl methyl cellulose, 0.2% tyloxapol, 3.4% dextrose, 0.006% benzalkonium chloride, and 0.025% ethylenediaminetetraacetic acid with 1% DMSO in PBS or with a single 50 μL eye drop of compound 1 at 500 μg/mL in the eye drop formulation containing 7% poly-oxyl-40-stearate and 4% dextrose in PBS. No difference between the eye drop formulations was confirmed in a separate study. Rabbits were killed at the indicated time points after the eye drop, blood and eyes taken, and the retina dissected from the choroid and sclera, incisions made, and laid out flat. Retina, RPE/choroid and sclera eye compartments were dissected into 7 different areas. All samples were weighed. Compound was extracted by reverse phase extraction from the retina and choroid/sclera samples and the plasma as above, and amount determined by mass spectrometry in different areas of the eye and in the blood. […]
To determine if the compounds could access the RPE of an animal with a large eye, a rabbit was exposed to 500 μg/mL of the compound as an eye drop and the concentrations in the retina, sclera, vitreous and other eye tissues (cornea); lens; RPE/choroid were measured. […]

The test system of series [3] is pan-VEGF and VEGF-A165b. The series is described as follows: Non-human primate retinal VEGF immunoblotting. Format: in vivo, Cynomolgus monkeys. The conditions noted are these: monkey. Here is the method: Retina sections sampled from half of the eye were homogenised in NP40 lysis buffer as described in Gammons et al., 2013. The extracts were then immunoblotted using either rabbit anti-panVEGF (Santa Cruz A20 sc-152; 1:500) or mouse anti-VEGFi65b (MAB3045; R&D; 1:500).
(§1) To determine whether compound 1 could penetrate into the retina of primates we dosed cynomologous monkeys with 0.5, 1.0 or 1.5 mg/mL compound 1 twice a day for 21 days. […] Aqueous taps and plasma samples were taken during the treatment and compound 1 measured in the fluid. […] To determine if these doses were sufficient to inhibit angiogenic VEGF-A isoform expression, retinal tissue was subjected to immunoblotting using pan-VEGF or VEGF-A165b antibodies.
For orientation: Immunoblotting shows a protein as a band on a membrane.

In series [4] the target is T1, SRPK1 (Homo sapiens, UniProt Q96SB4).
T1 construct: purchased MRC Dundee Kinase Centre (external assay service)
The series is described as follows: In vitro kinase assay (radioactive filter binding, 33P ATP). Format: biochemical. As to the method:
Kinase assays were carried out by the MRC Dundee Kinase Centre using a radioactive filter binding assay using ^33P ATP (Hastie, et al 2006. Nat Protoc. 2006; 1(2):968-71; Bain, et al 2007. Biochem J. 2007 Dec. 15; 408(3):297-315).

Series [5] deals with VEGF-A165b and panVEGF. The series is described as follows: STZ model of diabetes, retinal VEGF immunoblotting. The conditions noted are these: diabetic rats, bidaily eye drops for 28 days, Western blot. Format: in vivo, Norway Brown rats. Here is the method:
To determine whether compound 1 could effectively switch the splicing of VEGF in a model of diabetes we used the STZ model of diabetes in Norway Brown rats. Diabetic animals were treated with twice daily eye drops of compound 1 for four weeks and killed, and the retina dissected. Protein was extracted and subjected to immunoblotting for VEGF-A165b and panVEGF.

A short description of series [6]: Non-human primate pharmacokinetic study (eye drops). Format: in vivo, Cynomolgus monkeys. As to the method: Non-human primate pharmacokinetic study Cynomolgus monkeys were treated bidaily for 20 days with 35 μL eye drops of compound 1 at 0.5 mg/mL, 1.0 mg/mL or 1.5 mg/ml as indicated, in the eye drop formulation containing 7% poly-oxyl-40-stearate and 4% dextrose in PBS. Blood and aqueous samples were collected 1 h, 4 h, 8 h, 10 h and 14 h after eye drop administration on day 1 and at the end of the study. 1 h after the final eye drop on day 21, the animals were euthanised and ocular tissues and blood were collected. The retina was dissected from the choroid and sclera, incisions made, and laid out flat. Retina, RPE/choroid and sclera eye compartments were dissected into 7 different areas. All samples were weighed. Compound was extracted by reverse phase extraction from the retina and choroid/sclera samples and the plasma as above, and amount determined by mass spectrometry in different areas of the eye and in the blood. Amounts per milligram of tissue or nM for aqueous and blood were calculated for each sample, and averaged.
as §1

The mark [7] stands for this setting: 3 weeks bidaily dosing, FIG. 10b.

T1 sequence (Q96SB4 whole entry): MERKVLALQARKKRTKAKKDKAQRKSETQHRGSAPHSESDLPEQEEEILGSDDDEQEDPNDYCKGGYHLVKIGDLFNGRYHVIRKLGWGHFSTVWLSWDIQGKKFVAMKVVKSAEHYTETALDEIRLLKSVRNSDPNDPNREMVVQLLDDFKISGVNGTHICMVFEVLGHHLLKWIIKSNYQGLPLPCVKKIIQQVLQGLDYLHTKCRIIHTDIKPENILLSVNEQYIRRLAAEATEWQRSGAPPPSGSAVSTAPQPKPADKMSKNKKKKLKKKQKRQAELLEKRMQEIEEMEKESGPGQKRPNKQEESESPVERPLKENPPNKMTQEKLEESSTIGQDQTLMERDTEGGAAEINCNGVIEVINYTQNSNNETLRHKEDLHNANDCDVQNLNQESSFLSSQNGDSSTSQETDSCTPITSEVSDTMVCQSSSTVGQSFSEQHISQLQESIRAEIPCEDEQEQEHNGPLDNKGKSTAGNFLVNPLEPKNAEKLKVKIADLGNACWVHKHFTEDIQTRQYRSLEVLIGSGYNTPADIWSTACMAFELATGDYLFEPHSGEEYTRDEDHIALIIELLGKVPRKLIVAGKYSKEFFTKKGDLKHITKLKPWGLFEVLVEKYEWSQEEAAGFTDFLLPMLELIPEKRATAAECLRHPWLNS

The compound `Cn1ccc(CN2CCN(c3ccc(C(F)(F)F)cc3NC(=O)c3ccc(C4CCOCC4)o3)CC2)n1` [Compound 1, N-(2-(4-((1-methyl-1H-pyrazol-3-yl)methyl)piperazin-1-yl)-5-(trifluoromethyl)phenyl)-5-(tetrahydro-2H-pyran-4-yl)furan-2-carboxamide] showed a melting point of 148 to 150 °C. In addition, the “Expression of pro-angiogenic VEGF-A165a isoform” value in series [1] is “reduces expression of the pro-angiogenic VEGF-A165a isoform in a dose dependent manner”. In addition, in series [2], the “Retinal penetration after eye drop” value is recorded as “better sustained penetration (e.g. at 4 hrs) than chemically similar molecules such as Compound R”. In addition, in series [3] (setting [7]), the “Total VEGF levels in retina” value is “total VEGF levels are decreased”; the “VEGF-A165b levels in retina” value was “do not decrease and increase at 1 mg/ml”. The “Ratio of angiogenic to anti-angiogenic VEGF-A in retina” value in series [3] (FIG. 10c) is given as “decreases”. Moreover, in series [4], the concentration for half-maximal inhibition (IC50) is 4 nM. Besides, in series [5], the “Proportion of VEGF-A165b to total VEGF” value was “increased”, the “Total VEGF in retina” value is “total VEGF is reduced” and the VEGF-A165b in retina entry is “VEGF-A165b is increased”. The compound also had a half-life in series [6] (cynomolgus, cynomolgus monkey, aqueous humour, topical or ocular, monkey, after administration of 1.5 mg/mL eye drop) of 2 h. In addition, the “Concentrations in retina, choroid, vitreous and other tissues of the eye” value in series [6] (monkey, 0.5, 1.0 or 1.5 mg/mL twice a day for 21 days) was “significant concentrations”. Further, the “Concentrations in aqueous taps and plasma samples” value in series [6] (monkey, all three doses (0.5, 1.0, 1.5 mg/mL)) is “Significant concentrations were seen at all three doses”.
